“And” between values parts separate entries of the source, which are not always exact repeats. Equal entries are not always repeated.
Test system: adolescent subjects with ADHD and at least one genetic alteration in an mGluR network gene
Assay: Vanderbilt ADHD score (items 1-18, parent), Phase Ib trial of NFC-1
Format: in vivo, human
Description: The Vanderbilt Rating Scale is a measure that can be completed by parents or teachers (separate forms, see Vanderbilt Rating Scale Parents and Vanderbilt Rating Scale Teachers). The Vanderbilt scale rates the child's behavior on items such as attention, finishing tasks, hyperactivity, difficulty waiting, and measures of conduct or oppositional defiant disorders—as well as measures of overall school performance and interactions with others. The first 18 items on the Vanderbilt scale correspond to those of the ADHD Rating Scale IV above while the Vanderbilt scale also includes items 19-47 related to other mental disorders including ODD (items 19-26), conduct disorder (items 27-40), anxiety (items 41, 42, and 47), and depression (items 43-46). Each of the behavioral assessment items on the Vanderbilt Scale are rated 0, 1, 2, or 3, with 0=never occurring; 1=occasionally, 2=often, and 3=very often. Thus, the ADHD Rating Scale IV, ADHD Rating Scale V, and items 1-18 of the Vanderbilt Rating Scale are equivalent scales, while additional items on the Vanderbilt Scale assess co-morbid phenotypes and disorders.
Each of the items are rated on a scale of 0, 1, 2, or 3, with 0=never; 1=occasionally, 2=often, and 3=very often. A total score of 0 to 54 is computed based on the answers to the 18 questions.
As used herein an “ADHD rating scale score,” “ADHD score” or “Vanderbilt ADHD score” are used interchangeably to refer to the computed score of the 18 items of the ADHD Rating Scale IV or V or the first 18 items of the Vanderbilt Rating Scale in any of their associated versions, e.g., for parent, teacher, or clinician to complete, and for a pediatric subject or adult subject. Clinical trials may assess the impact of drug or placebo on the ADHD score or Vanderbilt ADHD score (i.e. the score of 0 to 54 based on the first 18 items in the ADHD or Vanderbilt rating scale). In some cases, results of a clinical trial population may be analyzed by comparing the average score or a percentage change in score over time of administration of drug.
An open-label Phase Ib clinical trial was initiated to investigate the safety, pharmacokinetics and efficacy of NFC-1 (fasoracetam monohydrate) in adolescent subjects between the ages of 12 and 17 previously diagnosed with ADHD who also had at least one genetic alteration in an mGluR network gene.
Dose-escalation phase of the trial followed the PK and initial safety assessment and ran over a 5-week period. During week 1, all subjects were administered placebo capsules twice daily. After one week of placebo treatment, patients were started on 50 mg bid NFC-1 for 1 week. If safety and responsiveness data from prior dose level of fasoracetam indicated it was appropriate, subjects were then escalated to the next higher dose (100, 200, or 400 mg). […] Of the 30 trial subjects, 3 received a maximum dose of 100 mg, 9 received a maximum dose of 200 mg, and the remaining 18 received a maximum dose of 400 mg.
All efficacy assessments, except actigraphy, were made at study enrollment (“enrollment baseline”) and again, including actigraphy, once-per-week for the placebo week (“week 1” or “placebo baseline”) and at each of the 4 weeks of NFC-1 treatment. These efficacy measures include items 1-18 of the Vanderbilt scale assessing symptoms related to inattentiveness and hyperactivity-impulsiveness as well as additional questions 19-47 of the Vanderbilt scale assessing other behavioral symptoms (conducted by parent), actigraphy for quantitative measurement of activity, Quotient® ADHD test for objective measurement of micro-motion and shifts in attention state, PERMP-Math test, and CGI-I and CGI-S for assessment of global functioning. […]

[1] = relative to placebo (week 1) baseline, Tier 3, Week 3, up to 100 mg bid
[2] = relative to placebo (week 1) baseline, Tier 3, Week 4, 200 mg bid
[3] = relative to placebo (week 1) baseline, Tier 3, Week 4, up to 200 mg bid
[4] = relative to placebo (week 1) baseline, Tier 3, Week 5, 400 mg bid
[5] = relative to placebo (week 1) baseline, Tier 3, Week 5, up to 400 mg bid
[6] = relative to pre-study (enrollment) baseline, Overall, Week 2, 50 mg bid
[7] = relative to pre-study (enrollment) baseline, Overall, Week 3, 100 mg bid
[8] = relative to pre-study (enrollment) baseline, Overall, Week 3, up to 100 mg bid
[9] = relative to pre-study (enrollment) baseline, Overall, Week 4, 200 mg bid
[10] = relative to pre-study (enrollment) baseline, Overall, Week 4, up to 200 mg bid
[11] = relative to pre-study (enrollment) baseline, Overall, Week 5, 400 mg bid
[12] = relative to pre-study (enrollment) baseline, Tier 1, Week 2, 50 mg bid
[13] = relative to pre-study (enrollment) baseline, Tier 1, Week 3, 100 mg bid
[14] = relative to pre-study (enrollment) baseline, Tier 1, Week 3, up to 100 mg bid
[15] = relative to pre-study (enrollment) baseline, Tier 1, Week 4, 200 mg bid

For `O=C1CC[C@H](C(=O)N2CCCCC2)N1` [NFC-1, fasoracetam monohydrate], the “Percent of subjects demonstrating robust improvement in Vanderbilt ADHD score (at least 40% decrease)” value [1] was 0%, the “Percent of subjects with improvement in Vanderbilt ADHD score (at least 25% decrease)” value [1] was 20% and the “Percent of subjects completing the dose escalation to 400 mg bid that show improvement in Vanderbilt ADHD scores (at least 25% decrease)” value [2] was 0%. The “Percent of subjects completing the dose escalation to 400 mg bid that show robust improvement in Vanderbilt ADHD scores (at least 40% decrease)” value [2] was 0%, the “Percent of subjects demonstrating robust improvement in Vanderbilt ADHD score (at least 40% decrease)” value [3] was 0% and the “Percent of subjects with improvement in Vanderbilt ADHD score (at least 25% decrease)” value [3] was 0%. The “Percent of subjects completing the dose escalation to 400 mg bid that show improvement in Vanderbilt ADHD scores (at least 25% decrease)” value [4] was 0%, the “Percent of subjects completing the dose escalation to 400 mg bid that show robust improvement in Vanderbilt ADHD scores (at least 40% decrease)” value [4] was 0% and the “Percent of subjects demonstrating robust improvement in Vanderbilt ADHD score (at least 40% decrease)” value [5] was 0%. The “Percent of subjects with improvement in Vanderbilt ADHD score (at least 25% decrease)” value [5] was 0%, the “Percent of subjects completing the dose escalation to 400 mg bid that show improvement in Vanderbilt ADHD scores (at least 25% decrease)” value [6] was 41% and the “Percent of subjects completing the dose escalation to 400 mg bid that show robust improvement in Vanderbilt ADHD scores (at least 40% decrease)” value [6] was 35%. The “Percent of subjects demonstrating robust improvement in Vanderbilt ADHD score (at least 40% decrease)” value [6] was 32%, the “Percent of subjects with improvement in Vanderbilt ADHD score (at least 25% decrease)” value [6] was 43% and the “Percent of subjects completing the dose escalation to 400 mg bid that show improvement in Vanderbilt ADHD scores (at least 25% decrease)” value [7] was 53%. For the same compound, the “Percent of subjects completing the dose escalation to 400 mg bid that show robust improvement in Vanderbilt ADHD scores (at least 40% decrease)” value [7] was 24%, the “Percent of subjects demonstrating robust improvement in Vanderbilt ADHD score (at least 40% decrease)” value [8] was 36% and the “Percent of subjects with improvement in Vanderbilt ADHD score (at least 25% decrease)” value [8] was 54%. The “Percent of subjects completing the dose escalation to 400 mg bid that show improvement in Vanderbilt ADHD scores (at least 25% decrease)” value [9] was 53%, the “Percent of subjects completing the dose escalation to 400 mg bid that show robust improvement in Vanderbilt ADHD scores (at least 40% decrease)” value [9] was 35% and the “Percent of subjects demonstrating robust improvement in Vanderbilt ADHD score (at least 40% decrease)” value [10] was 43%. For the same compound, the “Percent of subjects with improvement in Vanderbilt ADHD score (at least 25% decrease)” value [10] was 68%, the “Percent of subjects completing the dose escalation to 400 mg bid that show improvement in Vanderbilt ADHD scores (at least 25% decrease)” value [11] was 82% and the “Percent of subjects completing the dose escalation to 400 mg bid that show robust improvement in Vanderbilt ADHD scores (at least 40% decrease)” value [11] was 47%. The “Percent of subjects with improvement in Vanderbilt ADHD score (at least 25% decrease)” value (relative to pre-study (enrollment) baseline, Overall, Week 5, up to 400 mg bid, monohydrate) was 78% and 75-80%, the “Percent of subjects completing the dose escalation to 400 mg bid that show improvement in Vanderbilt ADHD scores (at least 25% decrease)” value [12] was 56% and the “Percent of subjects completing the dose escalation to 400 mg bid that show robust improvement in Vanderbilt ADHD scores (at least 40% decrease)” value [12] was 44%. For the same compound, the “Percent of subjects demonstrating robust improvement in Vanderbilt ADHD score (at least 40% decrease)” value [12] was 35%, the “Percent of subjects with improvement in Vanderbilt ADHD score (at least 25% decrease)” value [12] was 47% and the “Percent of subjects completing the dose escalation to 400 mg bid that show improvement in Vanderbilt ADHD scores (at least 25% decrease)” value [13] was 89%. For the same compound, the “Percent of subjects completing the dose escalation to 400 mg bid that show robust improvement in Vanderbilt ADHD scores (at least 40% decrease)” value [13] was 44%, the “Percent of subjects demonstrating robust improvement in Vanderbilt ADHD score (at least 40% decrease)” value [14] was 50% and the “Percent of subjects with improvement in Vanderbilt ADHD score (at least 25% decrease)” value [14] was 75%. The “Percent of subjects completing the dose escalation to 400 mg bid that show improvement in Vanderbilt ADHD scores (at least 25% decrease)” value [15] was 89%, the “Percent of subjects completing the dose escalation to 400 mg bid that show robust improvement in Vanderbilt ADHD scores (at least 40% decrease)” value [15] was 56% and the “Percent of subjects demonstrating robust improvement in Vanderbilt ADHD score (at least 40% decrease)” value (relative to pre-study (enrollment) baseline, Tier 1, Week 4, up to 200 mg bid) was 56%.
